Paper PMC10823475, “Design, Synthesis, and Evaluation of Inhibitors of Hedgehog Acyltransferase” (Journal of Medicinal Chemistry, 2024)

How the values were obtained:
[1] = MTS assay, cytotoxicity (72 h); type: cell-based; details: human, HEK293a SHH+ cells, 72 h; for CC50 at 72 h: read-out: MTS Assay (HEK293a SHH+) CC50 (CI95)
Method: The survival of HEK293a SHH^+ cells is independent of HH signaling,[35] therefore, the cytotoxicity of analogues was tested using the MTS assay to investigate off-target toxicity. In this assay, HEK293a SHH^+ cells were treated with DMSO vehicle or varying concentrations of analogues for 72 h. Subsequently, a mixture of 1-methoxy phenazine methosulfate (PMS) and [3-(4,5-dimethylthiazol-2-yl)-5-(3-carboxymethoxyphenyl)-2-(4-sulfophenyl)-2H-tetrazolium] (MTS) was added to enable quantification of cell number via colorimetric analysis. […] Compounds 3, 17, 19, 32, 34, 38, and 45, which all contain a 2-((2-methylbutyl)amino)acetyl, were toxic to HEK293a SHH^+ cells, as were ureas 26, 40, and 41.
HEK293a SHH^+ cells were plated at 5000 cells/well in a 96-well plate (Nunc) using a volume of 50 μL/well and cultured for 24 h as described. Cells were treated with 100 μL/well of either DMSO vehicle, Puromycin (2 μg/mL), or stated analogues (0.14–100 μM final) in DMEM supplemented with 10% FBS. After 72 h, 20 μL/well of a mixture of 1-methoxy phenazine methosulfate (PMS) and [3-(4,5-dimethylthiazol-2-yl)-5-(3-carboxymethoxyphenyl)-2-(4-sulfophenyl)-2H-tetrazolium] (MTS) at a ratio of MTS/PMS = 2/0.92 mg/mL in PBS was added and the plates were incubated for 3 h at 37 °C. Subsequently, the absorption at 490 nm was recorded using an EnVision Xcite 2104 (PerkinElmer), and the response was normalized to vehicle control and Puromycin treated samples. Dose response curves were fitted to a “sigmoidal dose response (variable slope)” model using GraphPad Prism 5 (GraphPad Software, Inc.).

purified HHAT = target: T1, purified HHAT (Homo sapiens, UniProt Q5VTY9); test: Acyl-cLIP assay, inhibition of purified HHAT; type: biochemical; details: for IC50: purified HHAT, read-out: Acyl-cLIP Assay IC50 (CI95)
T1 construct: made in house
T1 sequence (Q5VTY9 whole entry): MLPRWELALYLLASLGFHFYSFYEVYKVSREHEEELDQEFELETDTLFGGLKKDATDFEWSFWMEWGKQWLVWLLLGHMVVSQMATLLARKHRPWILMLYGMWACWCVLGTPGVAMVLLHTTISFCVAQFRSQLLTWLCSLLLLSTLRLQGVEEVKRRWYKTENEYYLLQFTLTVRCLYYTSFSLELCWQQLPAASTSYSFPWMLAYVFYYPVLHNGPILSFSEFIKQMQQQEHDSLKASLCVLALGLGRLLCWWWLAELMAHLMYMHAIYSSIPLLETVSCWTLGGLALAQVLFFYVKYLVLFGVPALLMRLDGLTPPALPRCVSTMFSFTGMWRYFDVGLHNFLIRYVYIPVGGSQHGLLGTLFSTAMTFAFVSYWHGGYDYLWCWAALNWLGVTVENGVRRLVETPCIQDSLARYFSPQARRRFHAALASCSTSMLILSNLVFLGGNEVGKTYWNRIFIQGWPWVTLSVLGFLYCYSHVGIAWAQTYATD
Method: The inhibitory potency of all 50 compounds against purified HHAT was quantified using the acylation-coupled lipophilic induction of polarization (acyl-cLIP) assay recently developed in our lab, a universally applicable assay for high-throughput analysis of protein–lipid transferases and hydrolases.[31],[40] In brief, in this assay a fluorescently labeled peptide based on the N-terminal sequence of SHH is incubated with N-dodecyl β-D-maltoside (DDM) solubilized purified HHAT, palmitoyl-CoA, and HHAT inhibitors. Binding of the lipidated peptide product to the DDM micelle results in decreased tumbling rate and an increase in polarization of fluorescence emission, enabling facile quantification of HHAT activity. Initially, % HHAT inhibition was determined at 50 μM and 25 μM for all analogues. […] HHAT is a 12-pass TM protein,[14] and we considered whether lipophilicity might bias inhibition; pIC50 values were compared to calculated log D, which indicated no significant correlation (SI, Table S1 and Figure S2). We concluded that lipophilicity is not a general driver of HHAT inhibitory potency.
The acyl-cLIP assay has been described previously.[40] Briefly, SHH-FAM peptide was diluted in buffer A (100 mM MES, 20 mM NaCl, 1 mM DTT, 1 mM TCEP, 0.1% BSA, pH 6.5) to a concentration of 2 μM. Palmitoyl-CoA (Sigma-Aldrich) was diluted in buffer A to 7.5 μM and recombinant HHAT (obtained by following the published protocol[14]) in buffer B (20 mM HEPES, 350 mM NaCl, 1% DDM, 5% glycerol, pH 7.3) diluted to 44 μg/mL. 1.5 μL of a 50 mM inhibitor DMSO stock was diluted with 18.5 μL of DMSO and further serial diluted (1:1). For each condition, 6 μL of the HHAT working stock and […] of the SHH-peptide working stock were mixed with 3 μL of the corresponding inhibitor concentration or DMSO vehicle. Twelve μL/well of this mixture was split into four wells of a black 384 well plate. To start the reaction, 8 μL of the Pal-CoA working stock were added to each well and fluorescence anisotropy and the total fluorescence recorded on an EnVision Xcite 2104 (PerkinElmer) over 30 min (emission filter 1 = FITC FP P-pol 535; emission filter 2 = FITC S-pol 535; excitation filter: FITC FP 480; measurement height = 6.5 mm; detector gain = 0; high concentration gain). Initial rate constants were determined by linear regression and normalized to DMSO control and samples with buffer B instead of HHAT. IC50 values were extracted from the corresponding dose response curves using a “sigmoidal dose response (variable slope)” model in GraphPad Prism 5 (GraphPad Software, Inc.).

SMILES	CC50 at 72 h [1] [µM]	viability at 72 h, 12.5 µM [1] [%]	viability at 72 h, 25 µM [1] [%]	HHAT inhibition in the acyl-cLIP assay (purified HHAT)	inhibition at 25 µM (purified HHAT) [%]	inhibition at 50 µM (purified HHAT) [%]	IC50 (purified HHAT) [µM]
CCC(C)CNCC(=O)N1CCc2cc(OC)c(OC)cc2C1c1ccccc1 (centres unmarked) [Compound 44, 1-(6,7-Dimethoxy-1-phenyl-3,4-dihydroisoquinolin-2(1H)-yl)-2-((2-methylbutyl)amino)ethan-1-one]	> 100	96 ± 3	95 ± 5	complete loss of HHAT inhibition	7 ± 3	8 ± 2	> 100
C[C@H](N)C(=O)N1CCc2sccc2C1c1ccccc1 (stereo partly drawn) [Compound 7, (2S)-2-Amino-1-(4-phenyl-6,7-dihydrothieno[3,2-c]pyridin-5(4H)-yl)propan-1-one]	–	99 ± 3	74 ± 4	–	42 ± 1	67 ± 3	–
CC(=O)N1CCc2sccc2[C@H]1c1cccc(C)n1 [Compound 27, (S)-1-(4-(6-Methylpyridin-2-yl)-6,7-dihydrothieno[3,2-c]pyridin-5(4H)-yl)ethan-1-one]	> 100	90 ± 4	89 ± 3	no inhibitory activity	4 ± 7	27 ± 6	> 100
CC(=O)N1CCCCC1c1ccccc1 (centres unmarked) [Compound 47, 1-(2-Phenylpiperidin-1-yl)ethan-1-one]	> 50	95 ± 2	93 ± 5	–	-14 ± 2	-3 ± 2	> 25
Cc1cccc(C2NCCc3sccc32)n1 (centres unmarked) [Compound 20]	–	82 ± 2	68 ± 3	inactive	9 ± 10	-2 ± 19	> 25
Clc1ccc(OCC2NCCc3sccc32)cc1 (centres unmarked) [Compound 1]	–	95 ± 3	84 ± 4	inactive	16 ± 5	2 ± 2	> 25
N[C@@H](Cc1ccccc1)C(=O)N1CCc2sccc2C1c1ccccc1 (stereo partly drawn) [Compound 11, (2S)-2-Amino-3-phenyl-1-(4-phenyl-6,7-dihydrothieno[3,2-c]pyridin-5(4H)-yl)propan-1-one]	–	46 ± 2	38 ± 1	–	-6 ± 3	-2 ± 6	> 25
CC(=S)N1CCc2sccc2C1c1ccccc1 (centres unmarked) [Compound 6]	–	27 ± 2	29 ± 5	–	44 ± 7	38 ± 2	> 25
C=CCN1CCc2sccc2C1c1cccc(C)c1 (centres unmarked) [Compound 15]	–	81 ± 2	74 ± 2	no inhibitory effect	-1 ± 5	-5 ± 9	> 25
Cc1cccc(C2NCCc3sccc32)c1 (centres unmarked) [Compound 14]	–	72 ± 3	74 ± 3	inactive	5 ± 3	-16 ± 16	> 25
CCC(C)CNCC(=O)N1CCCCC1c1ccccn1 (centres unmarked) [Compound 50, 2-((2-Methylbutyl)amino)-1-(2-(pyridin-2-yl)piperidin-1-yl)ethan-1-one]	> 100	88 ± 2	86 ± 2	–	8 ± 1	3 ± 1	> 25
CC(=O)N1CCc2sccc2C1c1ccccc1O (centres unmarked) [Compound 33]	> 100	88 ± 3	87 ± 5	–	24 ± 1	31 ± 1	> 25
CC(C)CNCC(=O)N1CCc2ccccc2C1c1ccccc1 (stereo in doubt) [Compound 42, (S)-2-((2-Methylpropyl)amino)-1-(1-phenyl-3,4-dihydroisoquinolin-2(1H)-yl)ethan-1-one]	> 100	92 ± 4	91 ± 2	no inhibitory activity	6 ± 2	7 ± 2	> 100
CC(C)[C@H](N)C(=O)N1CCc2sccc2C1c1ccccc1 (stereo partly drawn) [Compound 8, (2S)-2-Amino-3-methyl-1-(4-phenyl-6,7-dihydrothieno[3,2-c]pyridin-5(4H)-yl)butan-1-one]	–	92 ± 3	92 ± 3	–	9 ± 4	7 ± 11	> 25
C=CC(=O)N1CCCCC1c1ccccn1 (centres unmarked) [Compound 49, 1-(2-(Pyridin-2-yl)piperidin-1-yl)prop-2-en-1-one]	> 100	96 ± 2	89 ± 2	–	8 ± 1	3 ± 1	> 25
CCC(C)CNCC(=O)N1CCc2sccc2C1C1CCCCC1 (centres unmarked) [Compound 36, 1-(4-Cyclohexyl-6,7-dihydrothieno[3,2-c]pyridin-5(4H)-yl)-2-((2-methylbutyl)amino)ethan-1-one]	–	47 ± 4	25 ± 1	loss of activity	24 ± 1	24 ± 14	> 25
O=C([C@@H]1CCCN1)N1CCc2sccc2C1c1ccccc1 (mixture of isomers) [Compound 9, (S)-4-Phenyl-5-prolyl-4,5,6,7-tetrahydrothieno[3,2-c]pyridine]	–	90 ± 5	81 ± 5	–	4 ± 5	30 ± 2	> 25
N[C@H](C(=O)N1CCc2sccc2C1c1ccccc1)c1ccccc1 (stereo partly drawn) [Compound 10, (2S)-2-Amino-2-phenyl-1-(4-phenyl-6,7-dihydrothieno[3,2-c]pyridin-5(4H)-yl)ethan-1-one]	–	74 ± 3	43 ± 2	–	18 ± 1	21 ± 7	> 25
C=CC(=O)N1CCCCC1c1ccccc1 (centres unmarked) [Compound 48, 1-(2-Phenylpiperidin-1-yl)prop-2-en-1-one]	> 100	93 ± 2	90 ± 2	–	-2 ± 3	-3 ± 2	> 25
CCCCCCCC(=O)N1CCc2sccc2C1c1ccccc1 (centres unmarked) [Compound 13, 1-(4-Phenyl-6,7-dihydrothieno[3,2-c]pyridin-5(4H)-yl)octan-1-one]	–	47 ± 1	35 ± 2	loss of activity	6 ± 6	4 ± 6	> 25
c1ccc(C2NCCc3sccc32)cc1 (centres unmarked) [Compound 4]	–	90 ± 2	84 ± 3	inactive	5 ± 3	-16 ± 16	> 25
